{
  "source": "patent US20240376144A9",
  "about": "“NEUROACTIVE STEROIDS S[…] POSITION 10 WITH A CYCLIC GROUP FOR USE IN THE TREATMENT OF CNS DISORDERS” (Sage Therapeutics, Inc., priority 2018, published 2024)",
  "data": [
    {"target": "GABAA receptor ([35S]-TBPS binding, rat brain cortical membranes)", "test": "Steroid inhibition of [35S]-TBPS binding", "conditions": "3 nM [35S]-TBPS, in the presence of 5 mM GABA", "procedure": "[^35S]-t-Butylbicyclophosphorothionate (TBPS) binding assays using rat brain cortical membranes in the presence of 5 mM GABA has been described (Gee et al., J. Pharmacol. Exp. Ther. 1987, 241, 346-353; Hawkinson et al., Mol. Pharmacol. 1994, 46, 977-985; Lewin, A. H et al., Mol. Pharmacol. 1989, 35, 189-194).\nBriefly, cortices are rapidly removed following decapitation of carbon dioxide-anesthetized Sprague-Dawley rats (200-250 g). The cortices are homogenized in 10 volumes of ice-cold 0.32 M sucrose using a glass/teflon homogenizer and centrifuged at 1500×g for 10 min at 4° C. The resultant supernatants are centrifuged at 10,000×g for 20 min at 4° C. to obtain the P2 pellets. The P2 pellets are resuspended in 200 mM NaCl/50 mM Na—K phosphate pH 7.4 buffer and centrifuged at 10,000×g for 10 min at 4° C. This washing procedure is repeated twice and the pellets are resuspended in 10 volumes of buffer. Aliquots ([…]) of the membrane suspensions are incubated with 3 nM [^35S]-TBPS and […] aliquots of test drug dissolved in dimethyl sulfoxide (DMSO) (final 0.5%) in the presence of 5 mM GABA. The incubation is brought to a final volume of 1.0 mL with buffer. Nonspecific binding is determined in the presence of […] and ranged from 15 to 25%. Following a 90 min incubation at room temp, the assays are terminated by filtration through glass fiber filters (Schleicher and Schuell No. 32) using a cell harvester (Brandel) and rinsed three times with ice-cold buffer. Filter bound radioactivity is measured by liquid scintillation spectrometry. Non-linear curve fitting of the overall data for each drug averaged for each concentration is done using Prism (GraphPad). […] The concentration of test compound producing 50% inhibition (IC50) of specific binding and the maximal extent of inhibition (Imax) are determined for the individual experiments with the same model used for the overall data and then the means±SEM.s of the individual experiments are calculated.\nVarious compounds are or can be screened to determine their potential as modulators of [^35S]-TBPS binding in vitro. These assays are or can be performed in accordance with the above\nIn Table 2 below, A indicates a TBPS IC50 (μM)<0.1 μM, B indicates a TBPS IC50 (μM) of 0.1 μM to <1.0 μM, C indicates a TBPS IC50 (μM) of 1 μM to <10.0 μM, D means≥10 μM.", "units": {"IC50": "µM"}, "values": [
      {"smiles": "CCOC[C@@]1(O)CC[C@@]2(C3CC3)[C@H](CC[C@H]3[C@@H]4CC[C@H](C(C)=O)[C@@]4(C)CC[C@@H]32)C1", "note": "[Compound 4.12, 1-((3R,5R,8S,9S,10R,13S,14S,17S)-10-cyclopropyl-3-(ethoxymethyl)-3-hydroxy-13-methylhexadecahydro-1H-cyclopenta[a]phenanthren-17-yl)ethan-1-one]", "IC50": "< 0.1"},
      {"smiles": "CCOC[C@@]1(O)CC[C@@]2(C3CC3)[C@H](CC[C@H]3[C@@H]4CC[C@H](C(=O)Cn5cc(C#N)cn5)[C@@]4(C)CC[C@@H]32)C1", "note": "[Compound 5.2, 1-(2-((3R,5R,8S,9S,10R,13S,14S,17S)-10-cyclopropyl-3-(ethoxymethyl)-3-hydroxy-13-methylhexadecahydro-1H-cyclopenta[a]phenanthren-17-yl)-2-oxoethyl)-1H-pyrazole-4-carbonitrile]", "IC50": "< 0.1"},
      {"smiles": "CCOC[C@@]1(O)CC[C@@]2(C3CC3)[C@H](CC[C@H]3[C@@H]4CC[C@H](C(=O)Cn5ccc(C#N)n5)[C@@]4(C)CC[C@@H]32)C1", "note": "[Compound 6, 1-(2-((3R,5R,8S,9S,10R,13S,14S,17S)-10-cyclopropyl-3-(ethoxymethyl)-3-hydroxy-13-methylhexadecahydro-1H-cyclopenta[a]phenanthren-17-yl)-2-oxoethyl)-1H-pyrazole-3-carbonitrile]", "IC50": "< 0.1"},
      {"smiles": "COC[C@@]1(O)CC[C@@]2(C3CC3)[C@H](CC[C@H]3[C@@H]4CC[C@H](C(C)=O)[C@@]4(C)CC[C@@H]32)C1", "note": "[Compound 7.4, 1-((3R,5R,8S,9S,10R,13S,14S,17S)-10-cyclopropyl-3-hydroxy-3-(methoxymethyl)-13-methylhexadecahydro-1H-cyclopenta[a]phenanthren-17-yl)ethan-1-one]", "IC50": "< 0.1"},
      {"smiles": "COC[C@@]1(O)CC[C@@]2(C3CC3)[C@H](CC[C@H]3[C@@H]4CC[C@H](C(=O)Cn5cc(C#N)cn5)[C@@]4(C)CC[C@@H]32)C1", "note": "[Compound 8.2b, 1-(2-((3R,5R,8S,9S,10R,13S,14S,17S)-10-cyclopropyl-3-hydroxy-3-(methoxymethyl)-13-methylhexadecahydro-1H-cyclopenta[a]phenanthren-17-yl)-2-oxoethyl)-1H-pyrazole-4-carbonitrile]", "IC50": "< 0.1"},
      {"smiles": "CC(=O)[C@H]1CC[C@H]2[C@@H]3CC[C@@H]4C[C@](C)(O)CC[C@]4(C4CC4)[C@H]3CC[C@]12C", "note": "[Compound A9, 1-((3R,5R,8S,9S,10R,13S,14S,17S)-10-cyclopropyl-3-hydroxy-3,13-dimethylhexadecahydro-1H-cyclopenta[a]phenanthren-17-yl)ethan-1-one]", "IC50": "< 0.1"},
      {"smiles": "C[C@@]1(O)CC[C@@]2(C3CC3)[C@H](CC[C@H]3[C@@H]4CC[C@H](C(=O)Cn5cc(C#N)cn5)[C@@]4(C)CC[C@@H]32)C1", "note": "[Compound A11, 1-(2-((3R,5R,8S,9S,10R,13S,14S,17S)-10-cyclopropyl-3-hydroxy-3,13-dimethylhexadecahydro-1H-cyclopenta[a]phenanthren-17-yl)-2-oxoethyl)-1H-pyrazole-4-carbonitrile]", "IC50": "< 0.1"}
    ]}
  ]
}
